Experimental data reported in US20090012118A1, “Kynurenic Acid Amide Derivatives as Nr2b Receptor Antagoni” (priority 2004, published 2009).
pIC50: −log10 of the molar value. Read-outs that look alike come from different tables or passages of the source.

Key:
NR1a/NR2B NMDA receptor = target: T1, NR1a/NR2B NMDA receptor (Rattus norvegicus, UniProt P35439+Q00960); test: Functional NMDA antagonism, fluorimetric intracellular calcium measurement on HEK293 cells expressing NR1a/NR2B; assay type: cell-based
T1 construct: expressed in transfected cells
Procedure: (§1) Compounds were tested for their inhibitory action on NMDA evoked cytosolic calcium elevations in fluorescent calcium measurements. Studies were performed 48-72 h after addition of the inducing agent. Ketamine (500 μM) was also present during the induction in order to prevent cytotoxicity.
Since NMDA receptors are known to be permeable to calcium ions upon excitation, the extent of NMDA receptor activation, and its inhibition by functional antagonists can be characterized by measuring the rise in the intracellular calcium concentration following agonist (NMDA) application onto the cells.
The intracellular calcium measurements are carried out on HEK293 cells expressing NR1a and NR2B or NR2A NMDA receptor subunits.
(§2) Loading is stopped by washing twice with the solution used also during the measurement (140 mM NaCl, 5 mM KCl, 2 mM CaCl2, 5 mM HEPES [4-(2-hydroxyethyl)-1-piperazineethane-sulfonic acid], 5 mM HEPES-Na, 20 mM glucose, 10 μM glycine, pH=7.4). Then the test compound dissolved in the above solution (90 μl/well) is added. Intracellular calcium measurements are carried out with a plate reader fluorimeter. A rise in Fluo-4-fluorescence that reflects the intracellular calcium concentration is induced by application of 200 μM NMDA. Inhibitory potency of the test compound is assessed by measuring the reduction in the calcium elevation in the presence of different concentrations of the compound.
(§3) Inhibitory potency of a compound at a single concentration point is expressed as percent inhibition of the control NMDA response. For NR1a/NR2B expressing cells concentration-inhibition curves are produced. Sigmoidal concentration-inhibition curves are fitted over the data and IC50 values are defined as the concentration that produces half of the maximal inhibition that could be achieved with the compound. Mean IC50 values are derived from at least three independent experiments. For NR1-3/NR2A expressing cells antagonism of NMDA induced rise in intracellular calcium concentration by compounds of the present invention and reference compounds was tested at 10 and 15 microM concentration, respectively.

NR1-3/NR2A NMDA receptor [1] = target: T2, NR1-3/NR2A NMDA receptor (Homo sapiens, UniProt Q05586+Q12879); test: Functional NMDA antagonism, fluorimetric intracellular calcium measurement on HEK293 cells expressing NR1-3/NR2A; assay type: cell-based; design: NR1-3/NR2A % inhibition: dose or concentration left out as unconfirmed; conditions: for inhibition at 15 µM: NMDA evoked calcium rise; for inhibition at 10 µM: reference compounds
T2 construct: expressed in transfected cells
Procedure: as §1, with “(2003)]. […] Compounds” for “Compounds”
(§4) Since NMDA receptors are known to be permeable to calcium ions upon excitation, the extent of NMDA receptor activation, and its inhibition by functional antagonists can be characterized by measuring the rise in the intracellular calcium concentration following agonist (NMDA) application onto the cells. Since there is very high sequence homology between rat and human NMDA receptors (99, 95, 97% for NR1, NR2A, and NR2B subunits, respectively), it is believed that there is little, if any, difference in their pharmacological sensitivity.
(§5) The intracellular calcium measurements are carried out on HEK293 cells expressing NR1a and NR2B or NR2A NMDA receptor subunits. The cells are plated onto standard 96-well microplates and the cultures are maintained in an atmosphere of 95% air −5% CO2 at 37° C. until testing.
as §2, with “The cells are loaded with a fluorescent Ca^2+-sensitive dye, Fluo-4/AM (2-2.5 μM) prior to testing. Loading” for “Loading”
as §3

NMRI mice [2] = test: Mouse formalin test (second phase, licking/biting time); assay type: in vivo; conditions: 15 min before formalin, licking time 20-25 min after formalin; for ED50: Mus musculus, po; for ED50 in mouse formalin test: p.o.
Procedure: Injection of diluted formalin into the hind paw of rats or mice is known to elicit a biphasic pain-related behavior measured as time spent by licking/biting of the injured paw. The second phase is generally defined as pain related events detected in the 15-60 min. time interval after formalin injection. It is known that NMDA receptors are involved in the second phase of response to formalin injection and this behavioral response is sensitive to blockade of NMDA receptors [Dickenson, A. and Besson J.-M. (Editors): Chapter 1, pp. 6-7: Animal models of Analgesia; and Chapter 8, pp. 180-183: Mechanism of Central Hypersensitivity: Excitatory Amino Acid Mechanisms and Their Control—In Pharmacology of Pain. Springer-Verlag (Berlin) 1997.] Therefore, we used the second phase of formalin test to characterize the efficacy of compounds in vivo. Inhibition of the second phase of response is considered to indicate an analgesic effect against chemically-induced persistent pain [Hunskaar, S., et al.: Formalin Test in Mice, a Useful Technique for Evaluating Mild Analgesics, Journal of Neuroscience Methods, 14 (1985) 69-76.]
Male albino NMRI mice (20-25 g) were used. Prior to the experiment any solid food was withdrawn for approx. 16 hours but the animals had free access to 20% glucose solution. The animals were allowed 1 hour acclimatization period in a glass cylinder (cc. 15 cm in diameter), then moved to an identical cylinder with a mirror placed behind to facilitate observation. The test substances were suspended in 5% tween-80 (10 ml per kg body weight). and administered orally by gavage 15 min before the formalin injection (20 μl of 1% formalin in 0.9% saline injected subcutaneously into the dorsal surface of the right hind paw). The time spent by licking and biting of the injected paw was measured from 20 to 25 min. after the formalin injection.

NMRI mice [3] = test: as above; assay type: in vivo
NR1-3/NR2A NMDA receptor [4] = target: T3, NR1-3/NR2A NMDA receptor (Homo sapiens, UniProt Q12879); test: Functional NMDA antagonism, fluorimetric intracellular calcium measurement on HEK293 cells expressing NR1-3/NR2A; assay type: cell-based; design: NR1-3/NR2A % inhibition: dose or concentration left out as unconfirmed; conditions: reference compounds
T3 construct: expressed in transfected cells
Procedure: as §1, with “(2003)]. […] Compounds” for “Compounds”
as §4, §5
as §2, with “The cells are loaded with a fluorescent Ca^2+-sensitive dye, Fluo-4/AM (2-2.5 μM) prior to testing. Loading” for “Loading”
as §3

[5] = HEK293 cells expressing NR1a/NR2B, 200 μM NMDA evoked calcium rise, compounds of the invention, read-out: NR1a/NR2B IC50
[6] = HEK293 cells expressing NR1a/NR2B, reference compounds, read-out: NR1a/NR2B IC50

T1 sequence (Q00960 27-1482, other chains not shown): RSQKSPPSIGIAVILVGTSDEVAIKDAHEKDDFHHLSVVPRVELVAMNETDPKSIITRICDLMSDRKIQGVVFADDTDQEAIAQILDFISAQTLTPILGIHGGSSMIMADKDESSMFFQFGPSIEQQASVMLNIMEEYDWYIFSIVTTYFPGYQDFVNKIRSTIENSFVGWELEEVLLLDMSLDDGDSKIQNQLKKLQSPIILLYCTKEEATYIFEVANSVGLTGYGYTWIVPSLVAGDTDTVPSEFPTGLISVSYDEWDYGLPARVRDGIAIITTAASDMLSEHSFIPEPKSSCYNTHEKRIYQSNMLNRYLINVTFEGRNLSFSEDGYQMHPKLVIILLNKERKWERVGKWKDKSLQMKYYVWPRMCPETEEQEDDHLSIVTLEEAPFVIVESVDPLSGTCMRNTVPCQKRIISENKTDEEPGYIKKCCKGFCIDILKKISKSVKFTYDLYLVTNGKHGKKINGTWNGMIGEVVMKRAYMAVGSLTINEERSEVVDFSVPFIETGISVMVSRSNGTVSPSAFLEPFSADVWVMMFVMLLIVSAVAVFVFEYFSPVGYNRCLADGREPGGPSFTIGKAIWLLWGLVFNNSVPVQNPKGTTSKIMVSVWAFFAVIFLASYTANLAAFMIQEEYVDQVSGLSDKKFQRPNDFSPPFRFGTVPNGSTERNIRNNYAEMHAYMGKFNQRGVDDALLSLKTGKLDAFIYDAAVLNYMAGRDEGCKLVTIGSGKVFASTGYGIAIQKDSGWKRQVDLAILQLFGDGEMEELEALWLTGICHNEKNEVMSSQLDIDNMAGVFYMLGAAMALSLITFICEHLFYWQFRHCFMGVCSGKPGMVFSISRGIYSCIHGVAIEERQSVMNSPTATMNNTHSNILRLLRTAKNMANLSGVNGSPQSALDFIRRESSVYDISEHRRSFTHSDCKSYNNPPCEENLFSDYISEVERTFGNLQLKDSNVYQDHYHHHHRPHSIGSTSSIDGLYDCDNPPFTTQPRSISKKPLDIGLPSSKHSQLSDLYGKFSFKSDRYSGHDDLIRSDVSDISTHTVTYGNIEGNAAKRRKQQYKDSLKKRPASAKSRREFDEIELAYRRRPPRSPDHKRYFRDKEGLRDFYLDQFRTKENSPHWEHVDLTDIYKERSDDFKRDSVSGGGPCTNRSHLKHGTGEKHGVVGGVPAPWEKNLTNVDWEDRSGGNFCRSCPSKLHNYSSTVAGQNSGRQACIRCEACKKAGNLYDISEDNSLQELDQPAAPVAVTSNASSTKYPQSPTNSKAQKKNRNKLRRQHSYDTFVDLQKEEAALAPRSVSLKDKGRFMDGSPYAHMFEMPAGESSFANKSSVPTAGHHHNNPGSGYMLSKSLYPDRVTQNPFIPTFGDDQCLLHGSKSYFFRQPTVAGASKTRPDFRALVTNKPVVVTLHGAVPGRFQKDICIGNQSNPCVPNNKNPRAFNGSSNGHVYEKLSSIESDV
T2 sequence (Q12879 23-1464, other chains not shown): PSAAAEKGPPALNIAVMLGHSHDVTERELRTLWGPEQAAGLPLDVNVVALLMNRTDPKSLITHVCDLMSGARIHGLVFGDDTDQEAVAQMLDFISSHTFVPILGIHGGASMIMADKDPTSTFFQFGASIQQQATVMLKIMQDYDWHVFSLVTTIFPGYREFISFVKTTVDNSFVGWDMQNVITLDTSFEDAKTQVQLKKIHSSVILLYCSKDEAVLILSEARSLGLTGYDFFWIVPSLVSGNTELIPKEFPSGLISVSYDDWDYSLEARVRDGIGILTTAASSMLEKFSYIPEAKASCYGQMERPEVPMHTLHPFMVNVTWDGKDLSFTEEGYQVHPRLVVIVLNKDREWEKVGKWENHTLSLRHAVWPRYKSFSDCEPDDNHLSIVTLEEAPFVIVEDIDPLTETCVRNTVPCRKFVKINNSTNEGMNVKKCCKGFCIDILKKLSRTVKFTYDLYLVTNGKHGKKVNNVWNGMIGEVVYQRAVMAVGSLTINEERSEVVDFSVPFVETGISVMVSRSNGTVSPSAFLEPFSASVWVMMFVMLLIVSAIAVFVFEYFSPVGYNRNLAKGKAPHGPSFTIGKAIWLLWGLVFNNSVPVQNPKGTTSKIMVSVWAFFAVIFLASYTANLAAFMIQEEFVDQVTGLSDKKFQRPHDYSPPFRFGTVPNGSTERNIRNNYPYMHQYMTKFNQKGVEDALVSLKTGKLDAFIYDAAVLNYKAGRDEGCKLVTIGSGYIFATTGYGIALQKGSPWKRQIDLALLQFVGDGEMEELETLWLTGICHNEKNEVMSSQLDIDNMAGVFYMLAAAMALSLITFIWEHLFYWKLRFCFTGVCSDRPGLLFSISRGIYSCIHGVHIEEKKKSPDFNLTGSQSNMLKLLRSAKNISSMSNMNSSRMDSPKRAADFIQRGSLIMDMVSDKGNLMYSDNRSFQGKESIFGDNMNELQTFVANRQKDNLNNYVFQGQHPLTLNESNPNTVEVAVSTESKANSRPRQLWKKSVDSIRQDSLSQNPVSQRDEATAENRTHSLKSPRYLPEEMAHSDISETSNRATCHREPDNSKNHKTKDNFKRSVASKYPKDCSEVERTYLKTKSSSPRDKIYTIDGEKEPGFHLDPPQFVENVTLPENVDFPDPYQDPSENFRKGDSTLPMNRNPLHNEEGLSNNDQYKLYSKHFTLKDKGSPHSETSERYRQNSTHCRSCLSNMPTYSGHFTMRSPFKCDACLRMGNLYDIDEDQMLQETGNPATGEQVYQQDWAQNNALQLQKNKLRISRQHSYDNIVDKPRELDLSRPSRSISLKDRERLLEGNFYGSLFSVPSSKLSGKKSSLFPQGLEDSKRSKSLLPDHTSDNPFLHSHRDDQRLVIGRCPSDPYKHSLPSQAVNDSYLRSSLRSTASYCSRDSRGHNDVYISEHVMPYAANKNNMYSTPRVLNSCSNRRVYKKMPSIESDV
T3 sequence (Q12879 23-1464, other chains not shown): as above

pIC50 (NR1a/NR2B NMDA receptor; [5]) | inhibition at 15 µM (NR1-3/NR2A NMDA receptor [1]) | SMILES | ED50 (NMRI mice [2]) | further results
8.72 | -5.1% | O=C(c1cc(=O)c2cc(O)ccc2[nH]1)N1CCC(Cc2ccc(Cl)cc2)CC1 [Example 4, 2-[4-(4-Chloro-benzyl)-piperidine-1-carbonyl]-6-hydroxy-1H-quinolin-4-one] | > 20 mg/kg | –
8.05 | 14% | O=C(c1cc(=O)c2cc(O)ccc2[nH]1)N1CCC(COc2ccccc2)CC1 [Example 6, 6-Hydroxy-2-(4-Phenoxymethyl-piperidine-1-carbonyl)-1H-quinolin-4-one] | 0.46 mg/kg | –
8.43 | 7% | O=C(c1cc(=O)c2cc(O)ccc2[nH]1)N1CCC(Cc2ccccc2)CC1 [Example 2, 2-(4-Benzyl-piperidine-1-carbonyl)-6-hydroxy-1H-quinolin-4-one] | > 20 mg/kg | –
8.25 | -2.1% | O=C(c1cc(=O)c2cc3[nH]c(=O)oc3cc2[nH]1)N1CCC(Cc2ccccc2)CC1 [Example 9, 6-(4-Benzyl-piperidine-1-carbonyl)-1,5-dihydro-oxazolo[4,5-g]quinoline-2,8-dione] | > 20 mg/kg | –
– | – | C[C@@H]([C@@H](O)c1ccc(O)cc1)N1CCC(O)(c2ccccc2)CC1 [CP 101,606, (1S,2S)-1-(4-hydroxyphenyl)-2-(4-hydroxy-4-phenylpiperidine-1-yl)-1-propanol, reference compound] | > 20 mg/kg | inhibition at 10 µM (NR1-3/NR2A NMDA receptor [1]): 2.5%; ED50 (NMRI mice [3]; sc): > 20 mg/kg
– | – | O=c1[nH]c2ccc([S+]([O-])CCN3CCC(Cc4ccc(F)cc4)CC3)cc2o1 (centres unmarked) [CI-1041, 6-{2-[4-(4-fluoro-benzyl)-piperidin-1-yl]-ethanesulfinyl}-3H-benzooxazol-2-one, reference compound] | 2.4 mg/kg | pIC50 (NR1a/NR2B NMDA receptor): 8.08; inhibition at 10 µM (NR1-3/NR2A NMDA receptor [1]): 21%
– | – | Oc1ccc(OCCN2CCC(Cc3ccc(F)cc3)CC2)cc1 [Co-111103, 1-[2-(4-hydroxyphenoxy)ethyl]-4-(4-fluorobenzyl)piperidine, reference compound] | > 20 mg/kg | –
7.67 | 5.7% | O=C(c1cc(=O)c2cc(O)ccc2[nH]1)N1CCC(OCc2ccccc2)CC1 [Example 5, 2-(4-Benzyloxy-piperidine-1-carbonyl)-6-hydroxy-1H-quinolin-4-one] | – | –
7.55 | 0.2% | O=C(c1cc(=O)c2cc(O)ccc2[nH]1)N1CCC(Oc2ccccc2)CC1 [Example 10, 6-Hydroxy-2-(4-phenoxy-piperidine-1-carbonyl)-1H-quinolin-4-one] | – | –
8.29 | 5.1% | O=C(c1cc(=O)c2cc(O)ccc2[nH]1)N1CCC(Oc2ccc(Cl)cc2)CC1 [Example 7] | > 20 mg/kg | –
– | – | CC(CN1CCC(Cc2ccccc2)CC1)C(O)c1ccc(O)cc1 (stereo not drawn) [Ro 25.6981, R—(R*,S*)-1-(4-hydroxyphenyl)-2-methyl-3-[4-(phenylmethyl)piperidin-1-yl]-1-propanol, reference compound] | – | pIC50 (NR1a/NR2B NMDA receptor): 7.24; inhibition at 10 µM (NR1-3/NR2A NMDA receptor [1]): 1%; ED50 in mouse formalin test (NMRI mice [2]): inactive; ED50 (NMRI mice [3]; ip): 5.1 mg/kg
– | – | O=C(CCN1CCC(Cc2ccc(F)cc2)CC1)c1ccc2[nH]c(=O)oc2c1 [EMD 95885, reference compound] | – | pIC50 (NR1a/NR2B NMDA receptor; [6]): 7.32; NR1-3/NR2A % inhibition (NR1-3/NR2A NMDA receptor [4]): 0.1%; ED50 in mouse formalin test (NMRI mice [2]): 3.7 mg/kg
8.40 | -0.9% | O=C(c1cc(=O)c2cc(O)ccc2[nH]1)N1CCC(Cc2ccc(F)cc2)CC1 [Example 1, 2-[4-(4-Fluoro-benzyl)-piperidine-1-carbonyl]-6-hydroxy-1H-quinolin-4-one] | 9.5 mg/kg | –
– | – | CC(C(O)c1ccc(O)cc1)N1CCC(Cc2ccccc2)CC1 (stereo not drawn) [ifenprodil, erythro-2-(4-benzylpiperidino)-1-(4-hydroxyphenyl)-1-propanol, reference compound] | – | inhibition at 10 µM (NR1-3/NR2A NMDA receptor [1]): -2.7%
– | – | Cc1ccc(CC2(O)CCN(CCOc3ccc(O)cc3)CC2)cc1 [Co-101244, 1-[2-(4-hydroxyphenoxy)ethyl]-4-hydroxy-4-(4-methylbenzyl)piperidine, reference compound] | – | pIC50 (NR1a/NR2B NMDA receptor; [6]): 8.32; inhibition at 10 µM (NR1-3/NR2A NMDA receptor [1]): -8.7%; ED50 in mouse formalin test (NMRI mice [2]): inactive; ED50 (NMRI mice [3]; ip): 5.9 mg/kg
8.48 | -3.5% | Cc1ccc(OC2CCN(C(=O)c3cc(=O)c4cc(O)ccc4[nH]3)CC2)cc1 [Example 8, 6-Hydroxy-2-(4-p-tolyloxy-piperidine-1-carbonyl)-1H-quinolin4-one] | 8.2 mg/kg | –
8.42 | -2.4% | Cc1ccc(CC2CCN(C(=O)c3cc(=O)c4cc(O)ccc4[nH]3)CC2)cc1 [Example 3, 6-Hydroxy-2-[4-(4-methyl-benzyl)-piperidine-1-carbonyl]-1H-quinolin-4-one] | 8.9 mg/kg | –
